Source: ChEMBL document CHEMBL1132318, “Hydroxylated decahydroquinolines as ligands for the vesicular acetylcholine transporter: synthesis and biological evaluation” (J Med Chem, 1999)

Experiments:
[1] = Displacement of [3H]vesamicol from Vesicular Acetylcholine Transporter (VAChT)
[2] = Binding affinity against Sigma opioid receptor type 1 in guinea pig brain membranes using [3H](+)-pentazocine as radioligand

SMILES: O[C@@H]1CCN(Cc2cccc(I)c2)C[C@H]1N1CCC(c2ccccc2)CC1 (racemic)
- Ki [1]: 0.13 nM

SMILES: O[C@@H]1CCCC[C@H]1N1CCC(c2ccccc2)CC1 [VESAMICOL]
- Ki [2]: 26 nM
